# Data taken from PMC9837764 (Nature Communications, 2023).
# “And” between values parts separate entries of the source, which are not always exact repeats. Equal values may be shown once.
# Legend:
# [1] = MB-905 and metabolites in mouse lungs after single oral treatment; format: in vivo, mice; settings: individual animals
# Description: Fig. 5 Pharmacokinetic and pharmacodynamics in mice. […] Lung metabolites were detected consistently in terms of peak area and duration (c). Transgenic mice expressing the hACE2 receptor to SARS-CoV-2 entry at the age of 10–12 weeks were infected with 10^5 PFU intranasally and treated orally beginning 12–18 h after infection with 140 mg/kg/day. […] (e) are presented.
# (§1) Pharmacokinetics in rodent plasma was performed in CD1 mice (Mus musculus, 20–30 g) and Sprague‒Dawley rats (Rattus norvegicus, 250–300 g) of both sexes. […] After oral or intravenous administration, blood samples were collected at times of 0.25, 0.5, 1, 2, 4, 8, and 24 and 0.083, 0.25, 0.5, 1, 2, and 4 h. Parameters such as area under the curve (AUC), time taken to reach the maximum concentration (Tmax), time taken for Cmax to drop in half (T 1/2), volume of distribution, clearance, elimination constant and bioavailability (F) were evaluated. Bioavailability was calculated using the following equation: F (%) = [(intravenous dose x oral AUC)/(oral dose × intravenous AUC)] × 100. […] Animals were treated orally with MB-905 as previously described. Animals were sacrificed at different time points after treatments, and lungs were immediately removed, placed in liquid nitrogen at −80 °C and processed for further analysis. For the analysis of plasma and lung supernatant, UPLC–MS/MS equipment was used.
# [2] = test system: SARS-CoV-2 gamma VoC; design: species or system K18-hACE2 mice (Mus musculus); settings: mouse, in vivo
# [3] = male, Sprague-Dawley, rat, in vivo, 250 mg/kg
# [4] = test system: Salmonella typhimurium TA 102; assay: Ames test, strain TA 102
# [5] = test system: SARS-CoV-2 gamma VoC; design: species or system K18-hACE2 mice (Mus musculus); settings: mouse, in vivo; remark: listed apart in the source
# [6] = test system: SARS-CoV-2 gamma VoC; design: species or system K18-hACE2 mice (Mus musculus); settings: mouse, in vivo, 140 mg/kg/day
# [7] = test system: SARS-CoV-2 Gamma VoC; settings: hamster, in vivo, 140 mg/kg
# [8] = test system: Salmonella typhimurium TA 98; assay: Ames test, strain TA 98
# [9] = test system: SARS-CoV-2; assay: Yield-reduction assay, SARS-CoV-2 in Calu-3 cells (titers as PFU/mL in Vero cells); settings: for Inhibition of SARS-CoV-2 infectious titers (Fig1B source data, replicates): additional treatment at 24 h; for Inhibition of SARS-CoV-2 infectious titers (Fig1A source data, replicates): one treatment
# [10] = test system: SARS-CoV-2 gamma VoC; design: species or system K18-hACE2 mice (Mus musculus); settings: mouse, in vivo; remark: listed apart in the source
# [11] = test system: SARS-CoV-2 RNA; assay: RNA immunoprecipitation with anti-kinetin antibody, infected Calu-3 cells; format: cell-based
# [12] = test system: Salmonella typhimurium TA 100
# [13] = test system: Salmonella typhimurium TA 97a; assay: Ames test, strain TA 97a
# [14] = test system: SARS-CoV-2; assay: Combination of RdRp inhibitors with SARS-CoV-2 nsp14 inhibitors in infected Calu-3 cells, synergy; format: cell-based; settings: for Response (Fig3C source data for synergy analysis): DTG 0 nM
# [15] = MB-905 and metabolites in rat lung; format: in vivo, Sprague-Dawley rats (Rattus norvegicus); settings: 30 mg/kg oral
# Description: Noncompartmental data analysis was performed using Phoenix WinNonlin®.
# as §1
# Supplementary Fig. 6. Pharmacokinetic and putative metabolites of MB-905 in rats. a, […]
# plasma (n = 6); b, Single oral dose (30 mg/kg bodyweight) pharmacokinetics properties of MB- […]
# mg/kg, p.o.) (n=5) d, Single oral dose (30 mg/kg bodyweight) pharmacokinetics properties of […]
# (30 mg/kg, p.o.) (n=3) f, Single oral dose (30 mg/kg bodyweight) pharmacokinetics properties of […]
# [16] = test system: SARS-CoV-2 Gamma VoC; design: species or system Syrian hamsters (Mesocricetus auratus); settings: hamster, in vivo, 140 mg/kg
# [17] = MB-905-treated infected Calu-3 cells
# [18] = infected Calu-3, compound alone at 10 uM
smiles,measurement,setting,value
"c1coc(CNc2ncnc3[nH]cnc23)c1 [MB-905, N6-furfurylaminopurine]",MB-905 level (Fig5B),"[1]; 140 mg/kg, 0.25 h",1864 and 2462 and 2409
same,MB-905 level (Fig5B),"[1]; 140 mg/kg, 1 h",2448 and 1951
same,MB-905 level (Fig5B),"[1]; 140 mg/kg, 3 h",1209 and 771 and 2655
same,MB-905 level (Fig5B),"[1]; 140 mg/kg, 8 h",1105 and 110 and 400
same,MB-905 level (Fig5B),"[1]; 140 mg/kg, 12 h",0
same,MB-905 level (Fig5B),"[1]; 500 mg/kg, 0.25 h",5246 and 5640 and 6065
same,MB-905 level (Fig5B),"[1]; 500 mg/kg, 1 h",4146 and 4252 and 4427
same,MB-905 level (Fig5B),"[1]; 500 mg/kg, 3 h",3576 and 2579 and 2846
same,MB-905 level (Fig5B),"[1]; 500 mg/kg, 8 h",3077 and 895 and 2729
same,MB-905 level (Fig5B),"[1]; 500 mg/kg, 12 h",575 and 53 and 0
same,SARS-CoV-2-induced inflammation in the BAL fluid,[2],attenuated
same,Tolerability,[3],tolerated MB-905 well
same,Mutagenicity TA 102 +S9,[4]; 8 µg/mL,-
same,Mutagenicity TA 102 -S9,[4]; 8 µg/mL,-
same,Mutagenicity TA 102 +S9,[4]; 40 µg/mL,-
same,Mutagenicity TA 102 -S9,[4]; 40 µg/mL,-
same,Mutagenicity TA 102 +S9,[4]; 200 µg/mL,-
same,Mutagenicity TA 102 -S9,[4]; 200 µg/mL,-
same,Mutagenicity TA 102 +S9,"[4]; 1,000 µg/mL",-
same,Mutagenicity TA 102 -S9,"[4]; 1,000 µg/mL",-
same,Mutagenicity TA 102 +S9,"[4]; 5,000 µg/mL",-
same,Mutagenicity TA 102 -S9,"[4]; 5,000 µg/mL",-
same,LDH levels in bronchoalveolar lavage (BAL),[5],decreased
same,Infectious titers in lungs,[6],decreased significantly
same,Virus RNA levels from lung extracts,[6],did not alter
same,Tolerability (body weight),[7],tolerated
same,Mutagenicity TA 98 +S9,[8]; 8 µg/mL,-
same,Mutagenicity TA 98 -S9,[8]; 8 µg/mL,-
same,Mutagenicity TA 98 +S9,[8]; 40 µg/mL,-
same,Mutagenicity TA 98 -S9,[8]; 40 µg/mL,-
same,Mutagenicity TA 98 +S9,[8]; 200 µg/mL,-
same,Mutagenicity TA 98 -S9,[8]; 200 µg/mL,-
same,Mutagenicity TA 98 +S9,"[8]; 1,000 µg/mL",-
same,Mutagenicity TA 98 -S9,"[8]; 1,000 µg/mL",-
same,Mutagenicity TA 98 +S9,"[8]; 5,000 µg/mL",-
same,Mutagenicity TA 98 -S9,"[8]; 5,000 µg/mL",-
same,EC50,"[9]; Severe acute respiratory syndrome coronavirus 2, Calu-3",310 ± 50 nM
same,EC50,"[9]; Severe acute respiratory syndrome coronavirus 2, Calu-3, 24 h",30 ± 4 nM
same,EC90,"[9]; Severe acute respiratory syndrome coronavirus 2, read-out: In vitro EC90 values, range",2100 to 6300 nM
same,"Inhibition of SARS-CoV-2 infectious titers (Fig1B source data, replicates)","[9]; Drug 0.001, Calu-3, 48 h",16 and 20 and 22
same,"Inhibition of SARS-CoV-2 infectious titers (Fig1B source data, replicates)",[9]; Drug 0.01,22 and 55 and 63
same,"Inhibition of SARS-CoV-2 infectious titers (Fig1B source data, replicates)",[9]; Drug 0.1,66 and 47 and 65
same,"Inhibition of SARS-CoV-2 infectious titers (Fig1B source data, replicates)",[9]; Drug 1,92 and 72 and 69
same,"Inhibition of SARS-CoV-2 infectious titers (Fig1B source data, replicates)",[9]; Drug 10,98 and 97 and 96
same,"Antiviral activity, SARS-CoV-2 replication",[9]; huh-7 and calu-3 cells (Supplementary Fig. 2),inhibited SARS-CoV-2 replication in a concentration-dependent manner
same,"Inhibition of SARS-CoV-2 infectious titers (Fig1A source data, replicates)","[9]; Drug 0.001, Calu-3, MOI 0.1, 48 h",5 and 4 and 2
same,"Inhibition of SARS-CoV-2 infectious titers (Fig1A source data, replicates)",[9]; Drug 0.01,15 and 4 and 13
same,"Inhibition of SARS-CoV-2 infectious titers (Fig1A source data, replicates)",[9]; Drug 0.1,22 and 39 and 30
same,"Inhibition of SARS-CoV-2 infectious titers (Fig1A source data, replicates)",[9]; Drug 1,60 and 91 and 74
same,"Inhibition of SARS-CoV-2 infectious titers (Fig1A source data, replicates)",[9]; Drug 10,66 and 96 and 88
same,Fig6G lung histological score,[10],1 and 2
same,Viral RNA immunoprecipitated with anti-kinetin antibody (Ab) (Fig2C source data),[11]; [17],149.09 and 145.01 and 123.64 and 134.36
same,Viral RNA immunoprecipitated with isotype control (Iso) (Fig2C source data),[11]; [17],2.52 and 2.29 and 2.30 and 2.50
same,Enrichment of viral RNA in anti-N6-furfuryladenine IP compared to isotype control and nil-treated cells,[11]; infected Calu-3 cells,more than 10 fold
same,"Cytotoxicity and mutagenicity, preliminary assay TA 100",[12],not observed
same,Mutagenicity TA 97a +S9,[13]; 8 µg/mL,-
same,Mutagenicity TA 97a -S9,[13]; 8 µg/mL,-
same,Mutagenicity TA 97a +S9,[13]; 40 µg/mL,-
same,Mutagenicity TA 97a -S9,[13]; 40 µg/mL,-
same,Mutagenicity TA 97a +S9,[13]; 200 µg/mL,-
same,Mutagenicity TA 97a -S9,[13]; 200 µg/mL,-
same,Mutagenicity TA 97a +S9,"[13]; 1,000 µg/mL",-
same,Mutagenicity TA 97a -S9,"[13]; 1,000 µg/mL",-
same,Mutagenicity TA 97a +S9,"[13]; 5,000 µg/mL",-
same,Mutagenicity TA 97a -S9,"[13]; 5,000 µg/mL",-
same,Ames test,[13]; all strains of Supplementary Table 3,negative
same,Response (Fig3C source data for synergy analysis),[14]; MB-905 10 nM,8
same,Response (Fig3C source data for synergy analysis),[14]; MB-905 100 nM,17
same,Response (Fig3C source data for synergy analysis),[14]; MB-905 1000 nM,44
same,Response (Fig3C source data for synergy analysis),[14]; MB-905 10000 nM,89
same,EC50,"[14]; Severe acute respiratory syndrome coronavirus 2, Calu-3, read-out: EC50 mean",300 nM
same,EC90,"[14]; Severe acute respiratory syndrome coronavirus 2, Calu-3, read-out: EC90 mean",8000 nM
same,"Virus productive titers (Fig3A source data, replicates)",[14]; [18],60000 and 46000 and 56000
same,"Virus productive titers (Fig3B source data, replicates)",[14]; [18],60000 and 46000 and 52000
same,"MB-905 in rat lung (Fig4C source data, per animal)",[15]; 1 h,231.05 and 263.97 and 218.08
same,"MB-905 in rat lung (Fig4C source data, per animal)",[15]; 2 h,360.89 and 345.91 and 313.18
same,"MB-905 in rat lung (Fig4C source data, per animal)",[15]; 4 h,100.91 and 155.47 and 69.56
same,"MB-905 in rat lung (Fig4C source data, per animal)",[15]; 8 h,7.77 and 46.28 and 12.38
same,"MB-905 in rat lung (Fig4C source data, per animal)",[15]; 12 h,0
same,Lung injury,[16],protected this organ
